What all share (format): in vivo
Experiment [1] has as its system barnyardgrass (Echinochloa crus-galli). The experiment is described as follows: Test A postemergence. The conditions noted are these: Echinochloa crus-galli, post-emergence, 240 h, Postemergence; for pest or weed control at 125 g/ha: 125 g ai/ha, visual rating about 10 d after treatment, read-out: Barnyardgrass plant response rating (0 to 100 scale, 0 no effect, 100 complete control); for pest or weed control at 500 g/ha: 500 g ai/ha, visual injury, 0 to 100 scale (0 no effect, 100 complete control), approx. 10 d, read-out: Plant response rating, Barnyardgrass. In short, it runs like this:
(§1)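 Greenhouse, ~10 d after spray; visual injury vs untreated controls, 0 = no effect, 100 = complete control. Preemergence: directed soil spray over planted seeds. Postemergence: plants 2–10 cm, 1–2 leaf stage. Loam/sand blend. Compound in non-phytotoxic solvent with surfactant.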

The test system of a further experiment is corn (Zea mays). Briefly: Test A postemergence. To be noted: Zea mays, post-emergence, 240 h, Postemergence; for plant injury at 125 g/ha: 125 g ai/ha, visual rating about 10 d after treatment, read-out: Corn plant response rating (0 to 100 scale); for Corn plant response rating (crop injury, 0 = no effect, 100 = complete kill) at 500 g/ha: 500 g ai/ha, visual injury, 0 to 100 scale (0 no effect, 100 complete control), approx. 10 d. In short, it runs like this:
as §1

Experiment [2] concerns giant foxtail (Setaria faberii). Briefly: Test A postemergence. The conditions noted are these: Setaria faberi, post-emergence, 240 h, Postemergence; for pest or weed control at 125 g/ha: 125 g ai/ha, visual rating about 10 d after treatment, read-out: Foxtail, Giant plant response rating (0 to 100 scale); for pest or weed control at 500 g/ha: 500 g ai/ha, visual injury, 0 to 100 scale (0 no effect, 100 complete control), approx. 10 d, read-out: Plant response rating, Foxtail, Giant. In short, it runs like this:
as §1

For experiment [3], the system named is pigweed (Amaranthus retroflexus). Briefly: Test A postemergence. The conditions noted are these: Amaranthus retroflexus, post-emergence, 240 h, Postemergence; for pest or weed control at 125 g/ha: 125 g ai/ha, visual rating about 10 d after treatment, read-out: Pigweed plant response rating (0 to 100 scale); for pest or weed control at 500 g/ha: 500 g ai/ha, visual injury, 0 to 100 scale (0 no effect, 100 complete control), approx. 10 d, read-out: Plant response rating, Pigweed. In short, it runs like this: as §1

The subject of experiment [4] is wheat (Triticum aestivum). Briefly: Test A postemergence. To be noted: Triticum aestivum, post-emergence, 240 h, Postemergence; for plant injury at 125 g/ha: 125 g ai/ha, visual rating about 10 d after treatment, read-out: Wheat plant response rating (0 to 100 scale); for plant injury at 500 g/ha: 500 g ai/ha, visual injury, 0 to 100 scale (0 no effect, 100 complete control), approx. 10 d, read-out: Plant response rating, Wheat. In short, it runs like this:
as §1

In experiment [5] the test system is barnyardgrass (Echinochloa crus-galli). The experiment is described as follows: Test B flooded paddy test. To be noted: Echinochloa crus-galli, 360 h, Flood, 250 g ai/ha; visually evaluated after 13 to 15 d; read-out: Plant response rating, Barnyardgrass (0 to 100 scale where 0 is no effect and 100 is complete control). In short, it runs like this:
(§2)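 Flooding to 3 cm over soil accompanied treatment, which consisted of adding compound to the standing water around 2-leaf plants; depth was then maintained. Visual assessment versus controls followed at 13 to 15 d (scale 0–100, 0 meaning no effect).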

Experiment [6] relates to ducksalad (Heteranthera limosa). The experiment is described as follows: Test B flooded paddy test. The conditions noted are these: Heteranthera limosa, 360 h, Flood, 250 g ai/ha; visually evaluated after 13 to 15 d; read-out: Plant response rating, Ducksalad (0 to 100 scale where 0 is no effect and 100 is complete control). In short, it runs like this: as §2
The subject of a further experiment is rice (Oryra sativa). The experiment is described as follows: Test B flooded paddy test. The conditions noted are these: Oryza sativa, 360 h, Flood, 250 g ai/ha; visually evaluated after 13 to 15 d; read-out: Plant response rating, Rice (0 to 100 scale where 0 is no effect and 100 is complete control). In short, it runs like this: as §2
In experiment [7] the test system is sedge, umbrella (small-flower umbrella sedge, Cyperus difformis). Briefly: Test B flooded paddy test. The conditions noted are these: Cyperus difformis, 360 h, Flood, 250 g ai/ha; visually evaluated after 13 to 15 d; read-out: Plant response rating, Sedge, Umbrella (0 to 100 scale where 0 is no effect and 100 is complete control). In short, it runs like this:
as §2

The subject of experiment [8] is Galium (catchweed bedstraw, Galium aparine). The experiment is described as follows: Test A postemergence. The conditions noted are these: Galium, post-emergence, 240 h, Postemergence. In short, it runs like this:
as §1

In experiment [9] the test system is blackgrass (Alopecurus myosuroides). Briefly: Test A postemergence. The conditions noted are these: Alopecurus myosuroides, post-emergence, 240 h, Postemergence. In short, it runs like this: as §1
Experiment [10] has as its system ragweed (common ragweed, Ambrosia elatior). Briefly: Test A postemergence. To be noted: Ambrosia artemisiifolia, post-emergence, 240 h, Postemergence. In short, it runs like this:
as §1

For experiment [11], the system named is ryegrass, Italian (Italian ryegrass, Lolium multiflorum). The experiment is described as follows: Test A postemergence. The conditions noted are these: Lolium multiflorum, post-emergence, 240 h, Postemergence. In short, it runs like this: as §1

Consider `N#Cc1ccc(NC(=O)C2C(=O)NCC2c2ccccc2)cc1` (stereo not drawn) [Compound 1355], for which, in [1], the pest or weed control at 125 g/ha came to 0% and the pest or weed control at 500 g/ha was determined as 0%. In the experiment with corn (Zea mays), the plant injury at 125 g/ha amounted to 0% and the Corn plant response rating (crop injury, 0 = no effect, 100 = complete kill) at 500 g/ha came to 0%. In experiment [2], the pest or weed control at 125 g/ha was determined as 0% and the pest or weed control at 500 g/ha is 0%. Besides, in [3], the pest or weed control at 125 g/ha is 0% and the pest or weed control at 500 g/ha was 0%. For the same molecule, in experiment [4], the plant injury at 125 g/ha amounted to 0% and the plant injury at 500 g/ha was found to be 0%.
In the case of `O=C1NCC(c2ccccc2)C1C(=O)Nc1ccccc1` (stereo not drawn) [Compound 1358], the pest or weed control at 125 g/ha in experiment [1], in experiment [2] and in experiment [3] was 0% each time. Further, the pest or weed control at 500 g/ha in experiment [1], in experiment [2] and in experiment [3] was 0% in each case. Further, the plant injury at 125 g/ha (in the experiment with corn (Zea mays); in experiment [4]) was 0% in each case. The molecule further had a Corn plant response rating (crop injury, 0 = no effect, 100 = complete kill) at 500 g/ha with corn (Zea mays) of 0%. Besides, the plant injury at 500 g/ha in experiment [4] is 0%. Moreover, the pest or weed control at 250 g/ha (in experiment [5]; in [6]; in the experiment with rice (Oryra sativa); in experiment [7]) was 0% throughout.
For `O=C1NCC(c2ccccc2)C1C(=O)Nc1ccccc1Oc1ccccc1` (stereo not drawn) [Compound 1357], in experiment [1], the pest or weed control at 125 g/ha came to 0% and the pest or weed control at 500 g/ha was 0%. In the experiment on corn (Zea mays), the plant injury at 125 g/ha is 0% and the Corn plant response rating (crop injury, 0 = no effect, 100 = complete kill) at 500 g/ha turned out to be 0%. In experiment [2], the pest or weed control at 125 g/ha is 0% and the pest or weed control at 500 g/ha came out at 0%. Moreover, in experiment [3], the pest or weed control at 125 g/ha came out at 0% and the pest or weed control at 500 g/ha was found to be 0%. For the same molecule, in experiment [4], the plant injury at 125 g/ha was determined as 0% and the plant injury at 500 g/ha is 0%.
For the molecule `CN1C[C@H](c2ccc(C(F)(F)F)cc2)[C@@H](C(=O)Nc2cccc(F)c2C#N)C1=O` [Compound 1380], the pest or weed control at 125 g/ha in experiment [8] (125 g ai/ha, visual rating about 10 d after treatment, read-out: Galium plant response rating (0 to 100 scale)) came to 50%; in [1], 60%; in experiment [9] (125 g ai/ha, visual rating about 10 d after treatment, read-out: Blackgrass plant response rating (0 to 100 scale)), 40%; in experiment [2] it was 90%; in [3], 50%; in [10] (125 g ai/ha, visual rating about 10 d after treatment, read-out: Ragweed plant response rating (0 to 100 scale)), 40%. The pest or weed control at 125 g/ha in experiment [11] (125 g ai/ha, visual rating about 10 d after treatment, read-out: Ryegrass, Italian plant response rating (0 to 100 scale)) was 50%. Further, the pest or weed control at 500 g/ha in [8] (500 g ai/ha, visual injury, 0 to 100 scale (0 no effect, 100 complete control), approx. 10 d, read-out: Plant response rating, Galium) stood at 50%; in experiment [1], 80%; in experiment [9] (500 g ai/ha, visual injury, 0 to 100 scale (0 no effect, 100 complete control), approx. 10 d, read-out: Plant response rating, Blackgrass) it was 60%; in [2], 90%; in experiment [3] it was 60%; in experiment [10] (500 g ai/ha, visual injury, 0 to 100 scale (0 no effect, 100 complete control), approx. 10 d, read-out: Plant response rating, Ragweed), 50%. The pest or weed control at 500 g/ha in experiment [11] (500 g ai/ha, visual injury, 0 to 100 scale (0 no effect, 100 complete control), approx. 10 d, read-out: Plant response rating, Ryegrass, Italian) amounted to 60%. Also, the plant injury at 125 g/ha with corn (Zea mays) is 50%; in experiment [4], 40%. This molecule displayed a Corn plant response rating (crop injury, 0 = no effect, 100 = complete kill) at 500 g/ha in the experiment with corn (Zea mays) of 80%. Also, the plant injury at 500 g/ha in [4] is 40%. Moreover, the pest or weed control at 250 g/ha in [5] was 60%; in [6] it was 100%; in the experiment on rice (Oryra sativa) it was 0%; in experiment [7], 0%.
Regarding `O=C1NCC(c2ccccc2)C1C(=O)Nc1cccnc1` (stereo not drawn) [Compound 1356], the pest or weed control at 125 g/ha in experiment [1], in experiment [2] and in [3] was 0% in each case. Moreover, the pest or weed control at 500 g/ha in experiment [1], in experiment [2] and in experiment [3] was 0% each time. In addition, the plant injury at 125 g/ha (in the experiment on corn (Zea mays); in experiment [4]) was 0% each time. The Corn plant response rating (crop injury, 0 = no effect, 100 = complete kill) at 500 g/ha in the experiment on corn (Zea mays) was determined as 0%. Also, the plant injury at 500 g/ha in experiment [4] is 0%.

Values taken from patent US12077503B2, “Substituted cyclic amides and their use as herbicides” (FMC CORPORATION, priority 2015, dated 2024).
